Where two headings read alike, the source gives them in different places.
Key:
Assay in all cases: Lethality bioassay on germinating conidia
Type in all cases: cell-based
[1] = system: Germinating Conidia of Fusarium moniliforme; conditions: for viability at 5 µM / viability at 10 µM / viability at 15 µM / viability at 20 µM / viability at 25 µM / viability at 30 µM: Fusarium verticillioides, read-out: Percent of Control Mean (viable colonies, Fusarium moniliforme)
Procedure: (§1) Pathogen production. Stock slant isolates of Aspergillus flavus, Fusarium oxysporum, and Fusarium moniliforme were grown on potato dextrose agar (Difco, Detroit, Mich.) slants for 7 days at room temperature (22° C.).
(§2) Inoculum preparation. Prior to a bioassay, 4 ml of 1% potato dextrose broth (PDB, Difco, Detroit, Mich.), pH 4.86, was added to a stock culture slant. The conidia were suspended by gentle agitation using the pipette tip and the population determined with the use of a hemocytometer. The conidia were then diluted to a 10^4 conidia/ml concentration and incubated for 8 hrs at 22° C. to obtain germinating conidia that were used in the bioassays.
(§3) Experimental design of lethality bioassays to determine activity of coruscanone A. Coruscanone A was diluted in 100% methanol with a further dilution in PDB to achieve a stock concentration of 0.032 μg/μl. Test mixtures of germinating conidia and compound 67 were made in sterile 500 μl Eppendorf (Brinkman, Westbury, N.Y.) microcentrifuge tubes. Final test concentrations of compound 67 were 0, 5, 10, 15, 20, 25, and 30 μM in a final volume of 250 μl (0.0635 μg/μl=1.0 μM/250 μl). After an incubation of 30 min, 16 hours and 24 hours at 22° C., aliquots (50 μl) of the each sample were spread on each of 4 PDA plates. The plates were incubated at 22° C. for 2 days and the developed, viable colonies were enumerated. Separate bioassays were also set up at the same time as that with the 30 min incubation period but incubated at 22° C. for 16 and 24 hours, respectively. These samples were spread as previously described and the developing, viable colonies enumerated. Bioassays were performed on three separate occasions per fungus (n=12). Statistical analysis was performed using SigmaPlot 9.0 (p<0.05).

[2] = system: Germinating Conidia of Fusarium oxysporum; conditions: for viability at 5 µM / viability at 10 µM / viability at 15 µM / viability at 20 µM / viability at 25 µM / viability at 30 µM: read-out: Percent of Control Mean (viable colonies, Fusarium oxysporum)
Procedure: as §1, §2, §3

[3] = system: Germinating conidia of Aspergillus flavus; conditions: for viability at 5 µM / viability at 10 µM / viability at 15 µM / viability at 20 µM / viability at 25 µM / viability at 30 µM: read-out: Percent of Control Mean (viable colonies, Aspergillus flavus)
Procedure: as §1, §2, §3

Structure (SMILES): COC(/C=C/c1ccccc1)=C1\C(=O)C=C(C)C1=O [Compound 1, coruscanone A]
- Concentration at and above which significant and increasing lethality was observed ([1]; Fusarium moniliforme, 16 and 24 hours of incubation): ≥ 5 µM
- Lethality to germinating conidia (in words) ([1]; Fusarium moniliforme, 30 min incubation): not significantly lethal
- viability at 5 µM ([1]; 0.5 h): 106%
- viability at 10 µM ([1]; 0.5 h): 85.4%
- viability at 15 µM ([1]; 0.5 h): 114%
- viability at 20 µM ([1]; 0.5 h): 102%
- viability at 25 µM ([1]; 0.5 h): 99.7%
- viability at 30 µM ([1]; 0.5 h): 90.8%
- viability at 5 µM ([1]; 16 h): 12.5%
- viability at 10 µM ([1]; 16 h): 6.1%
- viability at 15 µM ([1]; 16 h): 5.3%
- viability at 20 µM ([1]; 16 h): 2.7%
- viability at 25 µM ([1]; 16 h): 2.1%
- viability at 30 µM ([1]; 16 h): 1.6%
- viability at 5 µM ([1]; 24 h): 38.6%
- viability at 10 µM ([1]; 24 h): 7.4%
- viability at 15 µM ([1]; 24 h): 4.2%
- viability at 20 µM ([1]; 24 h): 3.9%
- viability at 25 µM ([1]; 24 h): 2.2%
- viability at 30 µM ([1]; 24 h): 1.3%
- viability at 5 µM ([2]; 0.5 h): 110%
- viability at 10 µM ([2]; 0.5 h): 102%
- viability at 15 µM ([2]; 0.5 h): 110%
- viability at 20 µM ([2]; 0.5 h): 106%
- viability at 25 µM ([2]; 0.5 h): 116%
- viability at 30 µM ([2]; 0.5 h): 113%
- viability at 5 µM ([2]; 16 h): 104%
- viability at 10 µM ([2]; 16 h): 79.7%
- viability at 15 µM ([2]; 16 h): 41.2%
- viability at 20 µM ([2]; 16 h): 30.8%
- viability at 25 µM ([2]; 16 h): 14.5%
- viability at 30 µM ([2]; 16 h): 7.7%
- Concentration at which significant and increasing lethality begins ([2]; 16 hour incubation): ≥ 15 µM
- viability at 5 µM ([2]; 24 h): 80.2%
- viability at 10 µM ([2]; 24 h): 56.7%
- viability at 15 µM ([2]; 24 h): 35.2%
- viability at 20 µM ([2]; 24 h): 19.4%
- viability at 25 µM ([2]; 24 h): 10.9%
- viability at 30 µM ([2]; 24 h): 4.3%
- Concentration at and above which significantly and increasingly lethal ([2]; 24 hour incubation): ≥ 10 µM
- Lethality to germinating conidia (in words) ([2]; any of the tested concentrations (time not given)): not lethal
- viability at 5 µM ([3]; 0.5 h): 109%
- viability at 10 µM ([3]; 0.5 h): 86.6%
- viability at 15 µM ([3]; 0.5 h): 98%
- viability at 20 µM ([3]; 0.5 h): 78.9%
- viability at 25 µM ([3]; 0.5 h): 70%
- viability at 30 µM ([3]; 0.5 h): 66.5%
- viability at 5 µM ([3]; 16 h): 75.2%
- viability at 10 µM ([3]; 16 h): 76.4%
- viability at 15 µM ([3]; 16 h): 45.4%
- viability at 20 µM ([3]; 16 h): 39.1%
- viability at 25 µM ([3]; 16 h): 30.5%
- viability at 30 µM ([3]; 16 h): 19.5%
- viability at 5 µM ([3]; 24 h): 113%
- viability at 10 µM ([3]; 24 h): 71.8%
- viability at 15 µM ([3]; 24 h): 64.8%
- viability at 20 µM ([3]; 24 h): 55.7%
- viability at 25 µM ([3]; 24 h): 40.6%
- viability at 30 µM ([3]; 24 h): 28.7%
- Lethality to germinating conidia (in words) ([3]; after 24 hours of incubation, any tested concentration): no longer significantly lethal
- Lethality to germinating conidia (in words) ([3]; incubated 30 min): not lethal

Reference: patent US7109380B2, “Cyclopentenedione antifungal compounds and methods for their use” (The University of Mississippi, priority 2004, dated 2006)
